In the NIST ThermoML archive (doi:10.1016/j.tca.2009.10.017):
Several values for one entry are separate records, joined by “and”; a condition that tells them apart may be missing. Equal values may be shown once.

Cl[C@H]1[C@H](Cl)[C@@H](Cl)[C@@H](Cl)[C@H](Cl)[C@H]1Cl [γ-1,2,3,4,5,6-hexachlorocyclohexane]
vapor or sublimation pressure
Conditions | Crystal | Liquid
347.1 K, isothermal thermogravimetry | 0.0017 kPa | –
349.8 K, isothermal thermogravimetry | 0.0019 kPa | –
349.9 K, isothermal thermogravimetry | 0.002 kPa | –
351.9 K, isothermal thermogravimetry | 0.0025 kPa | –
352 K, isothermal thermogravimetry | 0.0027 kPa | –
354.4 K, isothermal thermogravimetry | 0.0034 kPa | –
355 K, isothermal thermogravimetry | 0.0031 kPa | –
356.2 K, isothermal thermogravimetry | 0.0039 kPa | –
356.4 K, isothermal thermogravimetry | 0.0042 kPa | –
357.8 K, isothermal thermogravimetry | 0.004 kPa | –
359.3 K, isothermal thermogravimetry | 0.005 kPa | –
361.5 K, isothermal thermogravimetry | 0.0052 kPa | –
363.2 K, isothermal thermogravimetry | 0.006 kPa | –
364 K, isothermal thermogravimetry | 0.0058 kPa | –
364.9 K, isothermal thermogravimetry | 0.0082 kPa | –
367.2 K, isothermal thermogravimetry | 0.0075 kPa | –
368.1 K, isothermal thermogravimetry | 0.0104 kPa | –
371.1 K, isothermal thermogravimetry | 0.0122 kPa | –
372.9 K, isothermal thermogravimetry | 0.0122 kPa | –
374.3 K, isothermal thermogravimetry | 0.0169 kPa | –
376.2 K, isothermal thermogravimetry | 0.017 kPa | –
377.4 K, isothermal thermogravimetry | 0.0225 kPa | –
377.5 K, non-isothermal thermogravimetry | 0.024 kPa | 0.024 kPa
378.3 K, non-isothermal thermogravimetry | 0.026 kPa | 0.026 kPa
379.1 K, non-isothermal thermogravimetry | 0.027 kPa | 0.027 kPa
379.3 K, isothermal thermogravimetry | 0.0228 kPa | –
379.9 K, non-isothermal thermogravimetry | 0.028 kPa | 0.028 kPa
380.7 K, isothermal thermogravimetry | 0.0294 kPa | –
380.7 K, non-isothermal thermogravimetry | 0.03 kPa | 0.03 kPa
381.5 K, non-isothermal thermogravimetry | 0.032 kPa | 0.032 kPa
381.8 K, isothermal thermogravimetry | 0.0277 kPa | –
382.4 K, non-isothermal thermogravimetry | 0.034 kPa | 0.034 kPa
383.2 K, non-isothermal thermogravimetry | 0.037 kPa | 0.037 kPa
384 K, isothermal thermogravimetry | 0.0365 kPa | –
384 K, non-isothermal thermogravimetry | 0.038 kPa | 0.038 kPa
384.8 K, non-isothermal thermogravimetry | 0.041 kPa | 0.041 kPa
386.4 K, non-isothermal thermogravimetry | – | 0.044 kPa
387 K, non-isothermal thermogravimetry | – | 0.049 kPa
387.4 K, isothermal thermogravimetry | – | 0.045 kPa
387.6 K, non-isothermal thermogravimetry | – | 0.044 kPa
387.9 K, non-isothermal thermogravimetry | – | 0.046 kPa
388.2 K, non-isothermal thermogravimetry | – | 0.044 kPa
388.6 K, non-isothermal thermogravimetry | – | 0.043 kPa
389.2 K, isothermal thermogravimetry | – | 0.049 kPa
389.9 K, isothermal thermogravimetry | – | 0.055 kPa
390.5 K, isothermal thermogravimetry | – | 0.053 kPa
390.8 K, non-isothermal thermogravimetry | – | 0.051 kPa
392.1 K, isothermal thermogravimetry | – | 0.06 kPa
392.1 K, non-isothermal thermogravimetry | – | 0.065 kPa
393.2 K, non-isothermal thermogravimetry | – | 0.06 kPa
393.5 K, isothermal thermogravimetry | – | 0.07 kPa
393.6 K, isothermal thermogravimetry | – | 0.065 kPa
394.1 K, non-isothermal thermogravimetry | – | 0.067 kPa
395 K, non-isothermal thermogravimetry | – | 0.07 kPa
395.9 K, non-isothermal thermogravimetry | – | 0.079 kPa
396.6 K, isothermal thermogravimetry | – | 0.08 kPa
396.7 K, non-isothermal thermogravimetry | – | 0.085 kPa
397.6 K, non-isothermal thermogravimetry | – | 0.074 kPa
398.5 K, non-isothermal thermogravimetry | – | 0.074 kPa
398.7 K, isothermal thermogravimetry | – | 0.088 kPa
398.9 K, isothermal thermogravimetry | – | 0.086 kPa
399 K, isothermal thermogravimetry | – | 0.093 kPa
399.9 K, isothermal thermogravimetry | – | 0.093 kPa
400.2 K, non-isothermal thermogravimetry | – | 0.088 kPa
400.3 K, isothermal thermogravimetry | – | 0.095 kPa
401 K, non-isothermal thermogravimetry | – | 0.1 kPa
401.7 K, isothermal thermogravimetry | – | 0.103 kPa
401.9 K, non-isothermal thermogravimetry | – | 0.109 kPa
402 K, non-isothermal thermogravimetry | – | 0.095 kPa
402.8 K, non-isothermal thermogravimetry | – | 0.106 kPa
403.6 K, non-isothermal thermogravimetry | – | 0.104 kPa
403.7 K, isothermal thermogravimetry | – | 0.114 kPa and 0.111 kPa
404.4 K, non-isothermal thermogravimetry | – | 0.125 kPa
405.3 K, non-isothermal thermogravimetry | – | 0.131 kPa
406.1 K, non-isothermal thermogravimetry | – | 0.139 kPa
406.5 K, isothermal thermogravimetry | – | 0.122 kPa
406.9 K, isothermal thermogravimetry | – | 0.133 kPa
406.9 K, non-isothermal thermogravimetry | – | 0.119 kPa
407.7 K, non-isothermal thermogravimetry | – | 0.153 kPa
408.5 K, non-isothermal thermogravimetry | – | 0.142 kPa
409.3 K, non-isothermal thermogravimetry | – | 0.158 kPa
410.2 K, non-isothermal thermogravimetry | – | 0.148 kPa
411 K, non-isothermal thermogravimetry | – | 0.174 kPa
411.8 K, non-isothermal thermogravimetry | – | 0.168 kPa
412.6 K, non-isothermal thermogravimetry | – | 0.177 kPa
413.4 K, non-isothermal thermogravimetry | – | 0.174 kPa
414.3 K, non-isothermal thermogravimetry | – | 0.192 kPa
415.1 K, non-isothermal thermogravimetry | – | 0.202 kPa
415.9 K, non-isothermal thermogravimetry | – | 0.195 kPa
416.8 K, non-isothermal thermogravimetry | – | 0.211 kPa
417.6 K, non-isothermal thermogravimetry | – | 0.229 kPa
418.4 K, non-isothermal thermogravimetry | – | 0.248 kPa
419.3 K, non-isothermal thermogravimetry | – | 0.261 kPa
420.1 K, non-isothermal thermogravimetry | – | 0.257 kPa
421 K, non-isothermal thermogravimetry | – | 0.254 kPa
421.8 K, non-isothermal thermogravimetry | – | 0.267 kPa
422.7 K, non-isothermal thermogravimetry | – | 0.286 kPa
423.6 K, non-isothermal thermogravimetry | – | 0.306 kPa
424.5 K, non-isothermal thermogravimetry | – | 0.301 kPa
425.4 K, non-isothermal thermogravimetry | – | 0.347 kPa
426.4 K, non-isothermal thermogravimetry | – | 0.366 kPa
426.8 K, non-isothermal thermogravimetry | – | 0.371 kPa
427.5 K, non-isothermal thermogravimetry | – | 0.405 kPa
428.6 K, non-isothermal thermogravimetry | – | 0.367 kPa
428.7 K, non-isothermal thermogravimetry | – | 0.416 kPa

Clc1c(Cl)c(Cl)c(Cl)c(Cl)c1Cl [hexachlorobenzene]
vapor or sublimation pressure, Crystal
Conditions | isothermal thermogravimetry | non-isothermal thermogravimetry
359.7 K | 0.002 kPa | –
360.2 K | 0.003 kPa | –
361.6 K | 0.003 kPa | –
362.5 K | 0.003 kPa | –
363.6 K | 0.004 kPa | –
364.4 K | 0.003 kPa | –
364.5 K | 0.004 kPa | –
365.4 K | 0.004 kPa | –
365.5 K | 0.004 kPa | –
367.4 K | 0.005 kPa | –
368 K | 0.005 kPa | –
369.5 K | 0.005 kPa | –
370.3 K | 0.005 kPa | –
371 K | 0.006 kPa | –
371.5 K | 0.006 kPa and 0.005 kPa | –
374.1 K | 0.007 kPa | –
377.1 K | 0.008 kPa | –
378.1 K | 0.008 kPa | –
378.2 K | 0.008 kPa | –
381.4 K | 0.012 kPa and 0.011 kPa | –
382.3 K | 0.012 kPa | –
382.4 K | 0.011 kPa | –
383.1 K | 0.012 kPa | –
384.4 K | 0.014 kPa | –
385.8 K | 0.015 kPa | –
386.2 K | 0.015 kPa | –
386.6 K | 0.013 kPa | –
388.5 K | 0.016 kPa | –
392.7 K | 0.021 kPa | –
393.3 K | 0.024 kPa | –
396.3 K | 0.026 kPa | –
396.7 K | 0.026 kPa | –
397.5 K | – | 0.038 kPa
399.6 K | 0.031 kPa | –
400.4 K | – | 0.048 kPa
400.6 K | 0.038 kPa | –
400.8 K | – | 0.041 kPa
401.2 K | – | 0.048 kPa
402 K | – | 0.047 kPa
402.8 K | – | 0.057 kPa
403.2 K | 0.044 kPa | –
403.6 K | – | 0.05 kPa
404.1 K | – | 0.061 kPa
404.4 K | 0.043 kPa | –
404.5 K | – | 0.051 kPa
404.9 K | – | 0.058 kPa
405.3 K | – | 0.053 kPa
405.8 K | – | 0.063 kPa
406.1 K | – | 0.052 kPa
406.5 K | – | 0.06 kPa
407 K | – | 0.064 kPa
407.4 K | – | 0.061 kPa
407.8 K | – | 0.064 kPa
408.2 K | – | 0.07 kPa
408.3 K | 0.057 kPa | –
408.6 K | – | 0.066 kPa
409 K | – | 0.078 kPa
409.4 K | – | 0.071 kPa
409.8 K | – | 0.079 kPa
410.2 K | – | 0.076 kPa
410.6 K | – | 0.073 kPa
411 K | – | 0.074 kPa
411.4 K | – | 0.089 kPa
411.9 K | – | 0.069 kPa
412.3 K | 0.066 kPa | 0.078 kPa
412.7 K | – | 0.084 kPa
413.2 K | – | 0.083 kPa
413.6 K | – | 0.085 kPa
414 K | – | 0.088 kPa
414.4 K | – | 0.093 kPa
414.9 K | – | 0.093 kPa
415.3 K | – | 0.089 kPa
415.7 K | – | 0.101 kPa
416.1 K | – | 0.094 kPa
416.5 K | – | 0.101 kPa
417 K | – | 0.101 kPa
417.4 K | – | 0.11 kPa
417.8 K | – | 0.118 kPa
418.2 K | – | 0.112 kPa
418.6 K | – | 0.113 kPa
419.1 K | – | 0.129 kPa
419.5 K | – | 0.131 kPa
419.9 K | – | 0.118 kPa
420.3 K | – | 0.134 kPa
420.7 K | – | 0.134 kPa
421.1 K | – | 0.128 kPa
421.5 K | – | 0.131 kPa
421.9 K | – | 0.144 kPa
422.3 K | – | 0.144 kPa
422.8 K | – | 0.143 kPa
423.2 K | – | 0.159 kPa
423.6 K | – | 0.146 kPa
424 K | – | 0.149 kPa
424.4 K | – | 0.152 kPa
424.8 K | – | 0.169 kPa
425.7 K | – | 0.173 kPa
